Assay results published in patent US20250108213A1, “COMPOSITIONS AND METHODS FOR ENHANCING THE EFFECT OF PLATINUM-BASED SYSTEMIC THERAPY” (NOVOCURE GMBH, priority 2023, published 2025).
“Also recorded” adds a separate entry of the source.

Legend:
A2780 cells [1] = test: Apoptosis, Annexin V/7-AAD staining, flow cytometer; format: cell-based, human; conditions: TTFields applied with drug
Protocol: Apoptosis: Treated cells were double-stained with FITC-conjugated annexin V (AnnV) and 7-aminoactinomycin D (7AAD), and data acquisition was performed with a flow cytometer.
Apoptosis was also examined. Treated cells were double-stained with FITC-conjugated annexin V (AnnV) and 7-aminoactinomycin D (7AAD), and data acquisition was performed with a flow cytometer.
Treated cells were stained with FITC-conjugated Annexin V (AnnV) and 7-Aminoactinomycin D (7-AAD) using a commercial kit (BioLegend, San Diego, CA, USA), according to the manufacturer's instruction. Data acquisition and analysis were done on the Cytek Northern Lights flow cytometer

A2780 cells [2] = system: A2780 cells
Protocol: (§1) Cells were seeded on coverslip (22 mm diameter; 20×10^3 cells/coverslip for A2780 and A2780cis; 40×10^3 cells/coverslip for OVCAR-3). After overnight incubation, the coverslips were transferred into in vitro dishes containing 2 ml of media. TTFields at a frequency of 200 kHz (and intensity of 1 V/cm RMS) were applied to the cells for 72 hr using the INOVITRO system (Novocure, Haifa, Israel).
(§2) For efficacy outcomes (cell count, overall effect, and apoptosis), various concentrations of carboplatin (MCE MedChemExpress, HY-17393), olaparib (Cayman Chemical, 10621), or niraparib (Cayman Chemical, 20842) were applied, with or without TTFields.
(§3) Cell count was examined following treatment using Cytek Northern Lights flow cytometer (Cytek Biosciences, USA).
(§4) Treated cells were harvested, re-plated in 6-well plates (500 cells/well for A2780 and A2780cis; 1000 for cells/well OVCAR-3), and grown for 7 (A2780 and A2780cis) or 21 (OVCAR-3) days. Colonies were stained with 0.5% crystal violet, quantified with ImageJ, and expressed as percentages relative to control. Overall effect was calculated by multiplying colony formation with the corresponding cell count.
(§5) The surviving fraction predicted for an additive effect between TTFields and drug was calculated per the various drug concentrations by multiplying the actual measured surviving fractions for the individual treatments one by the other (SFcalculated additive=SFTTFields×SFdrug; SF are expressed as probability). Based on the calculated values, a trendline was determined. Additivity, synergy, or antagonism was defined when the calculated additive trendline overlapped, was above, or was below the actual measured line for TTFields+drug, respectively.
(§6) For quantifying the magnitude of TTFields-drug interaction, interaction index (Ii) values were calculated by the Bliss independence method using mortality values (Mx=1−SFx). Per the various drug concentrations, mortality predicted for an additive effect between TTFields and drug (Mcalculated additive=MTTFields+Mdrug−MTTFields×Mdrug) was divided by the actual measured mortality for TTFields+drug. Additivity was determined when the 95% confidence interval (CI) overlapped 1, synergy when 95% CI<1, and antagonism when 95% CI>1. Lower Ii values were considered indicative of higher synergy levels.

OVCAR-3 cells = system: OVCAR-3 cells
Protocol: as §1, §2, §3, §4, §5, §6

[3] = system: orthotopic ID8-fLuc (HRP) ovarian cancer tumors; test: Overall survival of ovarian cancer bearing mice; format: in vivo
Protocol: Murine experiments were approved by the KU Leuven ethical committee (P082/2021). NIH guidelines for the Care and Use of Laboratory Animals were followed along with the 2010/62/EU directive and the ARRIVE (Animal Research: Reporting of In Vivo Research: Reporting of In Vivo Experiments) guidelines. Syngeneic ID8-fluc cells were harvested using 0.05% Trypsin-EDTA and inoculated (5×10^6 cells in 100 μL DPBS) intraperitoneally in female C57BL/6 mice (six- to eight-week-old, obtained from Envigo (Horst, The Netherlands)), leading to the development of a stage III-IV ovarian cancer model.
Seven days post inoculation, treatment was initiated. Mice were divided into four groups receiving either, sham-heat and vehicle (n=8), sham-heat and olaparib (n=8), TTFields and vehicle (n=7) or TTFields and olaparib (n=11). TTFields treatment (200 kHz) was administered continuously using the in vivo system (Novocure, Israel) by applying electrode arrays to the shaven abdomen of the mice as previously described. Sham-heat used analogous non-therapeutic arrays. Olaparib (MedKoo Biosciences, USA) was dissolved in a vehicle of 10% DMSO, 50% PEG300 and 40% DPBS and administered at a concentration of 50 mg/kg/day through daily oral gavage. Overall, therapeutic interventions lasted for four weeks, given in four cycles of five consecutive treatment days, followed by two days without treatment.
Mice were followed up and weighed daily once ascites development started as indicated by the appearance of abdominal distention. Mice were sacrificed when their body weight reached ≥32 grams as a surrogate endpoint for survival.

A2780cis cells = test: Cell count and overall effect (cell count x colony formation) after 72 h drug with or without TTFields; format: cell-based, human
Protocol: (§7) TTFields were applied to the cells for 72 h in the absence or presence of various concentrations of carboplatin. Synergy was defined when the observed value was lower than that predicted for an additive effect (presented by the red dotted line-calculated by multiplying the observed effects for TTFields alone with that for cisplatin alone).
The Cytotoxic effect was also determined. Treated cells were counted using a flow cytometer, and cytotoxic effect was calculated relative to control cells.
Treated cells were harvested, re-plated, and grown for an additional 7-14 days. Colonies were stained (0.5% crystal violet solution), counted, and clonogenic effect was calculated relative to control. The overall effect was calculated by multiplying the cytotoxic and clonogenic effects.
TTFields application was studied. Ovarian carcinoma cells A2780cis (cisplatin resistant cells) were treated for 72 h with TTFields at an intensity of 1 V/cm RMS and a frequency of 200 kHz using the inovitro system (See FIG. 11).
as §7, with “PARPi Olaparib and Niraparib.” for “carboplatin.”
The cytotoxic effect was studied. Treated cells were counted using a flow cytometer, and cytotoxic effect was calculated relative to control cells.
Treated cells were harvested, re-plated, and grown for an additional 7-14 days. Colonies were stained (0.5% crystal violet solution), counted, and clonogenic effect was calculated relative to control. Overall effect was calculated by multiplying the cytotoxic and clonogenic effects.
as §1, §2, §3, §4, §5
For quantifying the magnitude of TTFields-drug interaction, interaction index (Ii) values were calculated by the Bliss independence method using mortality values (Mx=1−SFx). Per the various drug concentrations, mortality predicted for an additive effect between TTFields and drug (Mcalculated additive=MTTFields+Mdrug−MTTFields×Mdrug) was divided by the actual measured mortality for TTFields+drug.

[4] = TTFields 200 kHz, 1 V/cm RMS, 72 h
[5] = TTFields plus drug vs drug alone
[6] = TTFields plus drug vs drug alone, p<0.0001
[7] = drug alone, 72 h, compared among A2780, OVCAR-3, A2780cis

In the case of `O=C(c1cc(Cc2n[nH]c(=O)c3ccccc23)ccc1F)N1CCN(C(=O)C2CC2)CC1` [olaparib], the “effect of TTFields on the apoptotic effect / apoptotic cell fraction” value (A2780 cells [1]) was “enhanced; also recorded: elevation”, the “type of TTFields-drug interaction, cytotoxic effect (cell count)” value (A2780 cells [2]) was “synergistically” and the “level of TTFields-drug synergy” value (A2780 cells [2]; A2780 relative to A2780cis cells, by Ii) was “higher”. For the same compound, the “type of TTFields-drug interaction (measured vs calculated additive curve)” value (shortened to “type … (measured vs calculated additive curve)”) (A2780 cells [2]; HRP cells, TTFields 200 kHz, 1 V/cm RMS, 72 h) was “high synergy”, the “type of TTFields-drug interaction, overall effect (cell count and clonogenic effect)” value (A2780 cells [2]; [4]) was “synergistically” and the “effect of TTFields on the drug-induced overall effect (cell count x colony formation)” value (from here on “effect … (cell count x colony formation)”) (A2780 cells [2]; [5]) was “significantly augmented”. The “effect of TTFields on the drug-induced effect, cell count” value (A2780 cells [2]; [6]) was “significantly augmented”, the “type … (measured vs calculated additive curve)” value (OVCAR-3 cells; HRD cells, TTFields 200 kHz, 1 V/cm RMS, 72 h) was “additively” and the “type of TTFields-drug interaction, overall effect (cell count and clonogenic effect)” value (OVCAR-3 cells; [4]) was “additive”. For the same compound, the “type of TTFields-drug interaction, cytotoxic effect (cell count)” value (OVCAR-3 cells; TTFields 200 kHz, 1 V/cm RMS, 72 h, BRCA mutant) was “additively”, the “effect … (cell count x colony formation)” value (OVCAR-3 cells; [5]) was “significantly augmented” and the “effect of TTFields on the drug-induced effect, cell count” value (OVCAR-3 cells; [6]) was “significantly augmented”. For the same compound, the “sensitivity to drug (cell count dose response)” value (OVCAR-3 cells; [7]) was “highest sensitivity”, the “median overall survival, TTFields plus olaparib” value ([3]; TTFields (200 kHz) plus olaparib 50 mg/kg/day, control 62 days) was 70 days and the “median overall survival, monotherapy” value ([3]; monotherapy, control 62 days) was 64.5 days. For the same compound, the “survival compared to control mice, monotherapy” value ([3]; olaparib only, p=0.0401) was “survival benefit”, the “survival, TTFields plus olaparib compared to control and monotherapies” value ([3]; p=0.0003 vs control, p=0.0003 vs olaparib, p=0.0130 vs TTFields) was “significantly prolonged” and the “effect … (cell count x colony formation)” value (A2780cis cells; [5]) was “significantly augmented”. The “effect of TTFields on the drug-induced effect, cell count” value (A2780cis cells; [6]) was “significantly augmented”, the “sensitivity to drug (cell count dose response)” value (A2780cis cells; [7]) was “highest resistance” and the “type … (measured vs calculated additive curve)” value (A2780cis cells; platinum-resistant cells, TTFields 200 kHz, 1 V/cm RMS, 72 h) was “tendency to synergy”.
